Data on eight molecules can be found in PMC5487681, “Identification of Antifungal H^+-ATPase Inhibitors with Effect on Plasma Membrane Potential” (Antimicrobial Agents and Chemotherapy, 2017).

The subject of test [1] is Aspergillus fumigatus ATCC 13073. Kind of test: microbe, parasite or virus in culture. Conditions: Aspergillus fumigatus. The protocol: (§1) The following fungal isolates were used: Saccharomyces cerevisiae ATCC 9763, Candida albicans SC5314, Candida parapsilosis ATCC 22019, Candida tropicalis Ct016, Candida glabrata ATCC 90030, Aspergillus fumigatus ATCC 13073, and Aspergillus flavus ATCC MYA-1005. Frozen stocks of yeast isolates in glycerol (final concentration, 20%) were prepared by growing the cells to log phase in YPD medium at 30°C and 150 rpm. Frozen stocks of mold spores were prepared by harvesting spores from 7-day-old potato glucose agar plates in phosphate-buffered saline, 0.1% Tween 80 and aliquoting these spores in the presence of glycerol (final concentration, 20%). The cells were stored at −80°C. The cells or spores were thawed and diluted to a final concentration of 0.5 × 10^5 to 2.5 × 10^5 CFU/ml in sterile Milli-Q H2O. […] The plate was incubated for 20 to 24 h at 34°C (72 h for molds), and the OD490 was measured on a Victor X5 (PerkinElmer) plate reader. Mold growth assay plates were also visually inspected. The MIC was defined as the lowest concentration inhibiting the visual growth of the microorganism.

The subject of test [2] is Candida albicans SC5314. Briefly: microbe, parasite or virus in culture. Conditions: Candida albicans. The protocol: as §1
Test [3] deals with Candida glabrata ATCC 90030. Kind of test: microbe, parasite or virus in culture. Conditions: Nakaseomyces glabratus. The protocol: as §1
Test [4] concerns Candida parapsilosis ATCC 22019. Briefly: microbe, parasite or virus in culture. Conditions: Lodderomyces parapsilosis. The protocol: as §1
In test [5] the test system is Candida tropicalis Ct016. Briefly: microbe, parasite or virus in culture. Conditions: Candida tropicalis. The protocol: as §1
For test [6], the target named is S. cerevisiae Pma1 (Saccharomyces cerevisiae, UniProt P05030). Kind of test: ATP hydrolysis assay, S. cerevisiae plasma membranes containing Pma1. The test is classed as biochemical. On the set-up: containing the full-length cDNA of the S. cerevisiae plasma membrane H^+-ATPase isoform PMA1; made in house; host or cells: S. cerevisiae RS72 (PMA1 cDNA under PMA1 promoter); also wild-type S. cerevisiae ATCC 9763. Conditions: for Selectivity toward Pma1 than toward SERCA or Na^+,K^+-ATPase: from IC50 of Table 2. The protocol:
Plasma membranes containing Pma1 were isolated from S. cerevisiae RS72 cells containing the full-length cDNA of the S. cerevisiae plasma membrane H^+-ATPase isoform PMA1 under the control of the PMA1 promoter, as described in reference.
A 100-ml overnight culture in YPD medium [10 g/liter yeast extract (BD, Sparks, MD), 20 g/liter Bacto peptone (BD), 20 g/liter D-(+)-glucose] was transferred to 1 liter YPD medium and grown at room temperature and 150 rpm for 18 h for wild-type S. cerevisiae (ATCC 9763) and 7 h for C. albicans. The cells were harvested and washed in Milli-Q H2O by centrifugation at 3,360 × g. The cells were glucose activated by the addition of 10% D-(+)-glucose for 10 min while shaking. The cells were then centrifuged at 3,360 × g for 3 min and frozen. Cells (60 to 80 g, wet weight) were then disrupted by bead beating (BioSpec, Bartlesville, OK) and processed as described in reference to prepare the plasma membranes. […] All batches were validated by ATPase hydrolysis activity, pH optimum, and orthovanadate sensitivity.
The protein activity levels were determined by measuring the amount of free phosphate produced from the ATP hydrolysis reaction. The assay was performed as described in reference. Each well contained ATPase enzyme, 2 μl of inhibitor (usually in the range of 333 to 0.01 μM) dissolved in dimethyl sulfoxide (DMSO) (Duchefa Biochemie, Haarlem, The Netherlands), and an assay buffer dependent on the enzyme for a final volume of 60 μl. Possible compound precipitation in the assay buffer was monitored using a Nephelostar plate reader measuring turbidity, and the information was taken into account in the IC50 determination. Pma1 assay buffer consisted of 20 mM 3-(N-morpholino)propanesulfonic acid (MOPS)–NaOH, pH 6.5 or 7.0, 8 mM MgSO4, 50 mM KNO3 (a vacuolar ATPase inhibitor), 25 mM sodium azide (a mitochondrial ATPase inhibitor), and 250 μM sodium molybdate (an acid phosphatase inhibitor). SERCA buffer consisted of 9 mM MOPS-NaOH, pH 7, 2.7 mM MgCl2, 90 μM CaCl2, and 72 mM KCl. Na^+,K^+-ATPase buffer consisted of 30 mM MOPS-NaOH, pH 7, 40 mM NaCl, 4 mM MgCl2, and 20 mM KCl. The concentration of protein was adjusted to obtain a signal of the optical density at 860 nm (OD860) of between 0.5 and 1.0 in the untreated samples (for all Pma1 batches, ∼1 to 2 μg/well; for SERCA and Na^+,K^+-ATPase, ∼0.1 to 0.2 μg/well). […]

Where [7] appears, read: ATCC13073, read-out: MIC for growth inhibition, A. fumigatus.
Where [8] appears, read: SC5314, read-out: Growth inhibition MIC, C. albicans in RPMI.
The mark [9] stands for this setting: SC5314, read-out: MIC for growth inhibition, C. albicans.
Setting [10] is: ATCC90030, read-out: MIC for growth inhibition, C. glabrata.
[11] abbreviates: ATCC22019, read-out: MIC for growth inhibition, C. parapsilosis.
The mark [12] stands for this setting: CT016, read-out: MIC for growth inhibition, C. tropicalis.
[13] abbreviates: Table 2, pH 7, n = 2, read-out: IC50 for ATP hydrolysis, S. cerevisiae Pma1.
Setting [14] is: ATCC13073, 72 h, pH 7, read-out: MIC A. fumigatus.
Setting [15] is: SC5314, pH 7, read-out: MIC C. albicans.
Setting [16] is: ATCC90030, pH 7, read-out: MIC C. glabrata.
Where [17] appears, read: ATCC22019, pH 7, read-out: MIC C. parapsilosis.
Setting [18] is: CT016, pH 7, read-out: MIC C. tropicalis.
The mark [19] stands for this setting: Table 1, ATP hydrolysis at pH 7, 2 to 3 experiments, read-out: IC50 Pma1.
Setting [20] is: Table 1, ATP hydrolysis at pH 6.5 (compounds marked b), 2 to 3 experiments, read-out: IC50 Pma1.

Structures are written as SMILES. In brackets after ≈: the same amount, converted by molar mass. Read-outs that look alike come from different tables or passages of the source.

S. cerevisiae Pma1, sequence (P05030 whole entry, canonical isoform): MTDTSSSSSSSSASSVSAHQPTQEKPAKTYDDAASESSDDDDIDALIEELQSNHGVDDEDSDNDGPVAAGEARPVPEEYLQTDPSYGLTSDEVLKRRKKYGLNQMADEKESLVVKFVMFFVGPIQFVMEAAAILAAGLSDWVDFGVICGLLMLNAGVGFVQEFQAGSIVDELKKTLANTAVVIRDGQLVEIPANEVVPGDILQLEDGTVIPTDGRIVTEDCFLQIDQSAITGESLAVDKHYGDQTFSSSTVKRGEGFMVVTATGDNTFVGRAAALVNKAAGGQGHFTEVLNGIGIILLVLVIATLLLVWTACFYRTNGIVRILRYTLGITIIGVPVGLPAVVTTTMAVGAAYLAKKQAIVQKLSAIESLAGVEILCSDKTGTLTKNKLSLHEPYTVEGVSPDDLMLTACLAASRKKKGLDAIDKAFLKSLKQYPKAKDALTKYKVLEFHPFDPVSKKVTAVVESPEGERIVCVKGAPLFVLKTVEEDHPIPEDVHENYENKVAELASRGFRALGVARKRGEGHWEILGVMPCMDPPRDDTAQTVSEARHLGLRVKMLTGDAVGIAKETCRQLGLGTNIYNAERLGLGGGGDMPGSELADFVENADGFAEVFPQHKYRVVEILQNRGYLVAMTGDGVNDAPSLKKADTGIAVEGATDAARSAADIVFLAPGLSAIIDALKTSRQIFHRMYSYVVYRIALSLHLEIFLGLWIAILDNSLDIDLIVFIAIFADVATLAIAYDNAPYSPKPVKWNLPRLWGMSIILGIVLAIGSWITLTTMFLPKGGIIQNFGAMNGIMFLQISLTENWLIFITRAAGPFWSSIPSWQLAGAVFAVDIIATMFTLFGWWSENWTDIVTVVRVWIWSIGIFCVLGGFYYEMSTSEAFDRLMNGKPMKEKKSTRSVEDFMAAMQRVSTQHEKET

Broadly, the IC50 is the concentration needed to halve the response being measured. With `CN(C)CCCNc1ncnc2c1sc1nc(N3CCCCC3)c3c(c12)CCCC3` [Compound 16], the MIC in test [1] (setting [7]) turned out to be 15 µM (≈ 6.37 µg/mL); in test [2] (setting [8]), 15 µM (≈ 6.37 µg/mL); in test [2] (setting [9]) it was 15 µM (≈ 6.37 µg/mL); in test [3] (setting [10]), 11 µM (≈ 4.67 µg/mL); in test [4] (setting [11]), 15 µM (≈ 6.37 µg/mL); in test [5] (setting [12]) it was 28 µM (≈ 11.9 µg/mL). For the same molecule, the IC50 in test [6] (setting [13]) came to 7.8 ± 0.6 µM. In test [6], the “Selectivity toward Pma1 than toward SERCA or Na^+,K^+-ATPase” value is listed as “no selectivity”.

As to `COc1ccc(-c2cc(C(=O)Nc3ccc4c(c3)OCCO4)c3ccccc3n2)c(OC)c1` [Compound 8], the MIC in test [1] (setting [14]), in test [2] (setting [15]), in test [3] (setting [16]), in test [4] (setting [17]) and in test [5] (setting [18]) was over 38 µM throughout. For the same molecule, in test [6] (setting [19]), the IC50 stood at 6.9 ± 2 µM.

On to `COc1ccc(-c2cc(C(=O)Nc3ccc(C(C)C)cc3)c3ccccc3n2)c(OC)c1` [Compound 3], for which the MIC in test [1] (setting [14]), in test [2] (setting [15]), in test [3] (setting [16]), in test [4] (setting [17]) and in test [5] (setting [18]) was over 150 µM throughout. In addition, the half-inhibitory concentration (IC50) in test [6] (setting [19]) was determined as 2.5 ± 2.5 µM.

Regarding `CCCCOc1ccc(C2C(C#N)=C(N)Oc3cc(O)ccc32)cc1` (stereo not drawn) [Compound 11], the MIC in test [1] (setting [14]), in test [2] (setting [15]), in test [3] (setting [16]), in test [4] (setting [17]) and in test [5] (setting [18]) was over 150 µM throughout. Also, the IC50 in test [6] (setting [19]) is 12.8 ± 5 µM.

Regarding `CC1CCCCN1CC(O)Cn1c(-c2ccccc2)c(-c2ccccc2)c2ccc3ccccc3c21` (stereo not drawn) [Compound 4], the MIC is over 38 µM in test [1] (setting [14]); 13 µM (≈ 6.17 µg/mL) in test [2] (setting [15]); over 38 µM in test [3] (setting [16]); over 38 µM in test [4] (setting [17]); 12 µM (≈ 5.7 µg/mL) in test [5] (setting [18]). For the same molecule, in test [6] (setting [20]), the half-maximal inhibitory concentration (IC50) was determined as 3.7 ± 0.7 µM.

As for `CCCCc1nc2sc3c(NCCCN(C)C)nc(SC)nc3c2c2c1CCC2` [Compound 15], the MIC was found to be 15 µM (≈ 6.44 µg/mL) in test [1] (setting [7]); 4.8 µM (≈ 2.06 µg/mL) in test [2] (setting [8]); 4.8 µM (≈ 2.06 µg/mL) in test [2] (setting [9]); 15 µM (≈ 6.44 µg/mL) in test [3] (setting [10]); 15 µM (≈ 6.44 µg/mL) in test [4] (setting [11]); 47 µM (≈ 20.2 µg/mL) in test [5] (setting [12]). Besides, the half-inhibitory concentration (IC50) in test [6] (setting [13]) was 5.9 ± 0.2 µM. Besides, the “Selectivity toward Pma1 than toward SERCA or Na^+,K^+-ATPase” value in test [6] was “no selectivity”.

For `Cc1c(-c2ccccc2)[o+]c2ccccc2c1C#Cc1ccccc1` [Compound 6], the MIC in test [1] (setting [14]), in test [2] (setting [15]), in test [3] (setting [16]), in test [4] (setting [17]) and in test [5] (setting [18]) was over 150 µM in each case. In test [6] (setting [20]), the IC50 was determined as 5 ± 3 µM.

For the molecule `O=c1c2ccccc2[se]n1-c1ccccc1` [Ebselen, reference compound], the MIC in test [1] (setting [7]) is 24 µM (≈ 6.58 µg/mL); in test [2] (setting [9]) it was 7.5 µM (≈ 2.06 µg/mL); in test [3] (setting [10]), 7.5 µM (≈ 2.06 µg/mL); in test [4] (setting [11]), 24 µM (≈ 6.58 µg/mL); in test [5] (setting [12]), 11 µM (≈ 3.02 µg/mL).
